Test results as given in patent US7291743B2, “Isoxazole derivatives and methods of treating nitric oxide mediated diseases” (Geneblue Corporation, priority 2005, dated 2007).

Columns and labels:
[1] = test system: inducible nitric oxide synthase (iNOS) in rat astrocytes; conditions: cited from earlier work
[2] = test system: RAW264.7 cells (murine macrophage); assay: Inhibition of nitric oxide production in vitro (nitrite by Griess reagent in LPS-stimulated macrophage cells); format: cell-based; conditions: Mus musculus, LPS 1 μg/mL, 24 hours, test solution 25-200 μM, nitrite by Griess reagent at 550 nm, Mean ± S.E. of 4-6 observations, read-out: IC50 (inhibition of LPS-induced NO production)
Description: • 1. Prepare the cell culture medium DMEM (Dulbecco's modified eagle medium) with 10% fetal calf serum and 10% penicillin-streptomycin. Grow RAW264.7 cells (murine macrophage) in the medium in an incubator at 37° C. under 5% CO2 and saturated water vapor. • 2. Dissolve each test compound in DMSO to make a stock solution. Prepare the test solutions by making suitable dilutions of each stock solution with DMEM. • 3. Add the LPS solution (final concentration=1 μg/mL) and the test solution (final concentration ranging from 25, 50, 100, and up to 200 μM) to individual cell cultures and place in the incubator for 24 hours. • 4. In vitro Nitrite quantification: The production of NO was determined by measuring the accumulated levels of nitrite in culture supernatants with the Griess reagent in LPS-stimulated macrophage cells. • (a) Withdraw 100 μL of the medium from each cell culture and place in a 96-well plate microplate. Add 100 μL of Griess reagent to the medium at room temperature and cover with aluminum foil for 10 minutes. • (b) Measure the absorption by a Dynatech ELISA reader at 550 nm. NaNO2 was used as the standard to calculate the nitrite concentration. • (c) Calculate the % inhibiiton by the following equation: […]
Wherein RM is the reading of medium only, RM+L is the reading of medium with LPS, RM+L+C is the reading of medium with LPS and test compound.

| Structure (SMILES) | inhibition of activation of iNOS [1] | IC50 [2] [µM] | melting point [°C] |
| --- | --- | --- | --- |
| Cc1oncc1C(=O)Nc1ccc(C(F)(F)F)cc1 [lefunomide, leflunomide] | inhibit activation of iNOS in rat astrocytes |  |  |
| Cc1cc(C(=O)Nc2ccc(NC(=O)c3cc(C)on3)cc2)no1 [Compound 14c] |  | 0.6 ± 0.01 | 178 to 180 |
| C/C(O)=C(\C#N)C(=O)Nc1ccc(C(F)(F)F)cc1 [Compound A771726, reference compound] |  | 175 ± 4.7 |  |
| Cc1cc(C(=O)Oc2ccc(OC(=O)c3cc(C)on3)cc2)no1 [Compound 15c] |  | 7.6 ± 0.4 | 148 to 150 |
